Reference: patent US20180028477A1, “TREATMENT OF CARDIAC REMODELING AND OTHER HEART CONDITIONS” (C & C BIOPHARMA, LLC, priority 2013, published 2018)
Values joined by “and” are separate entries in the source; they are usually repeats but may differ in a detail not shown here. Equal entries are not always repeated. “Also recorded” adds a separate entry of the source.

Tests used:
[1] = test system: ventricular fibrosis after TAC in mice; test: TAC 21 days: ventricular fibrosis, Masson's Trichrome (Example 5); assay type: in vivo; conditions: 21 days after TAC
Text: Using cardiac tissue samples obtained from the same mice treated under the experimental conditions described in Example 4, Masson's Trichrome was used to stain fibrotic tissue (FIG. 6A). Fibrotic area was quantified and expressed relative to the total tissue area (FIG. 6B). Ventricular fibrosis was prominent in mice 21 days after TAC, but not in sham-operated mice (FIGS. 6A and 6B).

[2] = test system: Neonatal Rat Ventricular Myocytes (NRVMs); test: Serum (FBS)-induced hypertrophy of Neonatal Rat Ventricular Myocytes in vitro; assay type: cell-based
Protocol: The cells were also treated with DMSO (light gray bars) or a vehicle (dark gray bars) as a negative control. The order of potency for inhibitors was DMSO<7MI<TSA<8MI. Viability was unchanged (not shown).
Next, the ability of 7MI and 8MI to inhibit hypertrophy in vitro was tested (FIG. 2A). […] However, fetal calf serum, which contained a rich variety of growth factors, was chosen as the most robust and multifactorial stimulus for cardiomyocyte growth available, reasoning that a similarly robust and powerful inhibitor would be required to block this hypertrophy.

[3] = test system: pressure overload produced by transverse aortic coarctation (TAC) in C57/B16 mice; assay type: in vivo
Protocol: […]. Mice were treated with daily injections of MEF2 inhibitor 8MI at the indicated concentrations for two weeks beginning immediately after transverse aortic banding. N=at least 3 per condition. Mice were subjected to either a sham operation (dark gray bars) or TAC (light gray bars). […] Ejection fraction, a measure of contractile function, was determined by echocardiography on a Vevo 770 ultrasound system prior to sacrifice at two weeks.
[…]. TAC has been used extensively to model the clinical hypertrophic stimuli of hypertension, aortic valve disease, and other types of pressure overload. In vivo pressure overload was created in wild type C57/B16 by creation of a surgical restriction in the transverse aorta between the origins of the right and left carotid arteries as previously described in Wei et. al. 2008. Control littermates were subjected to a sham operation. […] Trans-aortic gradients were determined by simultaneous measurements from the right and left carotid arteries using Statham pressure transducers (model P23XL, Viggo-Spectramed, Oxnard, Calif.) zeroed at the level of the right atrium. Pressures were continuously recorded as described in Wei et. al. 2008. […]
C57/B16 mice were treated with 8MI for two weeks and evaluated for cardiac function by echocardiography and for cardiac mass using a standard index of heart weight to tibia length (HW/TL) after sacrifice. […]

[4] = Metabolic stability in human liver microsomes fortified with NADPH (Example 11); assay type: in vitro ADME; set-up: CLint scaled: dose or concentration left out as unconfirmed
Text: Drug clearance is a measure of the ability of the body or an organ to eliminate a drug from the blood circulation. Systemic clearance is a measure of the ability of the entire body to eliminate the drug. Organ clearance is a measure of the ability of a particular organ (hepatic or renal) to eliminate the drug. For hepatic clearance, the liver is the major organ for drug metabolism and the key organ for drug clearance. Human liver microsomes (HLM) fortified with NADPH is a standard way to measure in vitro metabolism and predict in vivo clearance. CLint (intrinsic clearance) is the link between in vitro and in vivo studies, which can be estimated based on the mono-exponential decay model: Ct=C X e^−kt.
Human liver microsomes fortified with NADPH is a standard approach to evaluate metabolic stability mediated by CYP (cytochrome P450) enzymes in vitro. The reaction mixture (0.4 mL) contained 0.5 mg/mL human liver microsomes, 100 mM phosphate buffer (pH 7.4) and […] of test compounds. The mixture was first warmed up for 5 min in a 37° C. shaking water bath and then NADPH at a final concentration of 1 mM was added to initiate the reaction. Aliquots […] were taken at specified time points and mixed with ice-cold methanol (containing internal standard) to stop the reaction. The mixture was vortexed briefly and centrifuged for protein precipitation. An aliquot of […] supernatant was subject to LC-MS/MS analysis. The percentage of compound disappearance was used to calculate the rate of metabolism.

[5] = Serum chemistries in mice subjected to TAC and treated with 8MI (Example 6); assay type: in vivo; conditions: for ALT / BUN / Calcium / Creatinine / Glucose / Total Protein: serum, TAC
Protocol: The effects of 8MI on hypertrophy in a model of moderate pressure overload were tested further (FIGS. 5A-5E). 8MI or its vehicle (DMSO) was administered over a range of concentrations immediately prior to and for 21 days following transverse aortic coarctation (TAC). All experiments were performed on 2-3 month old wild type C57/BL/6 mice. Cardiac hypertrophy was induced by TAC as described in Wei et. al. 2008. Pressure gradients induced by TAC were evaluated postoperatively by pulsed-wave Doppler echocardiography to confirm equivalent gradients in all animals (45±5 mmHg). 8MI was delivered via tail vein injection one day prior to surgical intervention and then daily for 21 days. Blood samples were obtained at sacrifice on day 21 after surgery, and serum was frozen at […] until analysis
Prior to sacrifice, serum was extracted from the blood of the mice treated as described in Example 4.

[6] = 8MI 5 mg/kg, individual mice #7-9
[7] = 8MI 20 mg/kg, individual mice #10-12
[8] = 8MI 40 mg/kg, individual mice #13-15

Q: Which results are given for Nc1ccccc1NC(=O)CCCCCC(=O)Nc1cccc(Br)c1 [8MI]?
A: fibrotic response (fibrotic area relative to total tissue area) ([1]; dose range): significantly reduced in a dose-dependent manner; also recorded: reduces fibrosis; fibrotic response (fibrotic area relative to total tissue area) at the highest dosage ([1]; highest dosage): eliminated; viability ([2]; NRVMs (not shown)): unchanged; order of potency for inhibitors ([2]; NRVMs, FBS-induced growth): most potent inhibitor; also recorded: DMSO<7MI<TSA<8MI; growth response to Fetal Bovine Serum / serum-stimulated myocyte growth (hypertrophy) ([2]; NRVMs, pre-treatment with a range of doses): sufficient to block myocyte hypertrophy; also recorded: depressed growth response; mortality ([3]; mouse, in vivo): no mortality; TAC-induced reduction of Left Ventricular Ejection Fraction (LVEF) ([3]; two weeks after TAC, 5, 20 and 40 μg/g 8MI daily): largely prevented this impairment of function; K (rate constant) ([4]; 0.5 mg/mL human liver microsomes, 1 mM NADPH, pH 7.4, 37° C.): 0.0046 min⁻¹; Clhp (hepatic clearance) ([4]; human liver microsomes): 3.85 mL/min/kg; CLint scaled ([4]; pH 7.4, human liver microsomes, from mono-exponential decay model, read-out: Clint (intrinsic clearance)): 4.73 mL/min/kg; tolerability from serum chemistries ([5]; TAC mice, 5-40 mg/kg, 21 days): well tolerated; mice with significant renal and/or hepatic dysfunction induced by TAC ([5]; mice receiving any dose of 8MI (control: 2 out of 3)): 1 out of 9; ALT [5, 6]: 47 U/L and 53 U/L and 58 U/L; BUN [5, 6]: 26 mg/dL and 21 mg/dL and 25 mg/dL; Calcium [5, 6]: 11.7 mg/dL and 9.7 mg/dL and 11 mg/dL; Creatinine [5, 6]: 0.2 mg/dL; Glucose [5, 6]: 375 mg/dL and 158 mg/dL and 294 mg/dL; Total Protein [5, 6]: 5.6 g/dL and 5.8 g/dL and 5.4 g/dL; ALT [5, 7]: 51 U/L and 73 U/L and 57 U/L; BUN [5, 7]: 21 mg/dL and 19 mg/dL and 28 mg/dL; Calcium [5, 7]: 9.9 mg/dL and 10.3 mg/dL and 11.1 mg/dL; Creatinine [5, 7]: 0.2 mg/dL; Glucose [5, 7]: 224 mg/dL and 177 mg/dL and 326 mg/dL; Total Protein [5, 7]: 5.3 g/dL and 5.6 g/dL and 6.0 g/dL; ALT [5, 8]: 56 U/L and 308 U/L and 60 U/L; BUN [5, 8]: 21 mg/dL and 26 mg/dL and 23 mg/dL; Calcium [5, 8]: 10.6 mg/dL and 8.7 mg/dL and 10.1 mg/dL; Creatinine [5, 8]: 0.3 mg/dL (2×) and 0.6 mg/dL; Glucose [5, 8]: 455 mg/dL and 140 mg/dL and 252 mg/dL; Total Protein [5, 8]: 6.2 g/dL and 5.5 g/dL and 5.7 g/dL
